Data: patent US10669252B2, “Benzazepine derivative, preparation method, pharmaceutical composition and use thereof” (SHANGHAI DE NOVO PHARMATECH CO., LTD., priority 2016, dated 2020)

Tests used:
[1] = biological target: T1, TLR8 (Homo sapiens, UniProt Q9NR97); assay: TLR8 cell based assay (HEK-BLUE-hTLR8, SEAP reporter linked to NF-κB activation); settings: HEK-BLUE-hTLR8 cells
T1 construct: host or cells: HEK293 (HEK-BLUE-hTLR8)
T1 sequence (Q9NR97 27-1041): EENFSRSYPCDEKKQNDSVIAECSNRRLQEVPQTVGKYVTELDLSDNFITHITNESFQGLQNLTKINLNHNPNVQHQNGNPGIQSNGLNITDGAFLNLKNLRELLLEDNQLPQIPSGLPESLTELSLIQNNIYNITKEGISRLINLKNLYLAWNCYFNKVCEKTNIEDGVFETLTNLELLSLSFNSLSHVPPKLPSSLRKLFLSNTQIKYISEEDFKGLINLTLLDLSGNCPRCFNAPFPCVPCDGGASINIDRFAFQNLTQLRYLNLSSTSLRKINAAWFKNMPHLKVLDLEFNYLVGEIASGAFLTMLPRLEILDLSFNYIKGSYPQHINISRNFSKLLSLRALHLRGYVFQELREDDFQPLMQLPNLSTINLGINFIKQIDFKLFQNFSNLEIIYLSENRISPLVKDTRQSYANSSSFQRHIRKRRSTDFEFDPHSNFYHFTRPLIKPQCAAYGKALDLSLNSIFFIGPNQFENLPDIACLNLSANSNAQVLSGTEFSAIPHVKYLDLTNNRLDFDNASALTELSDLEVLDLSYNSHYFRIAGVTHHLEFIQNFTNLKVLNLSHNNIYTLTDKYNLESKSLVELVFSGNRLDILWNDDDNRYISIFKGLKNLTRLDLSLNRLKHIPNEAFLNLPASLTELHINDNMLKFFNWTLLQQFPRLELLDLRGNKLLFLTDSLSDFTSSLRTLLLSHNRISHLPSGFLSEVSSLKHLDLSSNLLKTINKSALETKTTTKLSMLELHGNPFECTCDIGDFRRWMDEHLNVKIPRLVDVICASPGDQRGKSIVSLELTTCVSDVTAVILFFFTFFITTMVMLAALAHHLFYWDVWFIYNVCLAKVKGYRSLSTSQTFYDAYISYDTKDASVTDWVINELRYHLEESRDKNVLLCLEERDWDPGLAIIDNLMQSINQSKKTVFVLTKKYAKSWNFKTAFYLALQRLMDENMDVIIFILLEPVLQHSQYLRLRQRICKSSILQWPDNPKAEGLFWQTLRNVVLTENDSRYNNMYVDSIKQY
How it was run: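 HEK-BLUE-hTLR8 cells (40,000/well) exposed 24 h at 37° C, 5% CO2 to compound, 10 points from 0.5 nM to 15 μM, 0.5% DMSO. Supernatant SEAP read with QUANTI-Blue (1.5 h, 37° C) at OD 650 nm; activation % normalized to DMSO and TLR8 agonist control, EC50 fitted.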

[2] = biological target: T2, TLR7 (Homo sapiens, UniProt Q9NYK1); assay: TLR7 cell based assay (HEK-BLUE-hTLR7, SEAP reporter linked to NF-κB activation); settings: HEK-BLUE-hTLR7 cells, 24 hours treatment, SEAP/QUANTI-Blue readout
T2 construct: host or cells: HEK293 (HEK-BLUE-hTLR7)
T2 sequence (Q9NYK1 27-1049): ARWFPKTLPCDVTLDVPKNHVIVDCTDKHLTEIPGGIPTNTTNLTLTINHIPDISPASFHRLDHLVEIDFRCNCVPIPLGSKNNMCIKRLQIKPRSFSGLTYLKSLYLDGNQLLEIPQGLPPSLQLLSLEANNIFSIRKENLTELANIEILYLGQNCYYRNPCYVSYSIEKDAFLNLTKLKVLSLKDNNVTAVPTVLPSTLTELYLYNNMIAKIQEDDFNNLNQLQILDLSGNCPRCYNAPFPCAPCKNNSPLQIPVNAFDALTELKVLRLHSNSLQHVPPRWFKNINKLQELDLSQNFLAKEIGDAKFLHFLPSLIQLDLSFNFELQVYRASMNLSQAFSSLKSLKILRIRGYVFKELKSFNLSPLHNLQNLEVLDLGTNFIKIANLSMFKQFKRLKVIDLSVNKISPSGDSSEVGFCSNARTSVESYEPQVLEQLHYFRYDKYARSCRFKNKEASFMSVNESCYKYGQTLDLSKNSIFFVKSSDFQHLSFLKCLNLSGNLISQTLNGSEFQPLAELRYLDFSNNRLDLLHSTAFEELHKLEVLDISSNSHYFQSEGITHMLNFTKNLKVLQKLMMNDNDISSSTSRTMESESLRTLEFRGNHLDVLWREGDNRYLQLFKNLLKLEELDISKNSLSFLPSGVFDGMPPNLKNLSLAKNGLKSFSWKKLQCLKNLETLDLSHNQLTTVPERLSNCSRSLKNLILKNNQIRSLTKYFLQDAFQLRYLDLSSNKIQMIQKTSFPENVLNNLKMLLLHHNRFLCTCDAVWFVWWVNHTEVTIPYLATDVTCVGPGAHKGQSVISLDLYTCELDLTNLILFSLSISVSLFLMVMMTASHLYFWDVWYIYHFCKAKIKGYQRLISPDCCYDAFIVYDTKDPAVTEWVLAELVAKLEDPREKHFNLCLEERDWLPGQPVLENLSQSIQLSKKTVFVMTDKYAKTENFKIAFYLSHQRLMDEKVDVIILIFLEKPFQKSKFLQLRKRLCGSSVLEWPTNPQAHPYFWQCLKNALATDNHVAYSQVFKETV
Experimental: In this assay, the bioactivity of compound of formula (I) was measured using a cell based assay. The assay was performed in human embryonic kidney cells (HEK293) expressing TLR7 or other TLR family members such as TLR4, and TLR9 (for selectivity screens). The activity of specific TLR agonists was assessed using the secretory embryonic alkaline phosphatase (SEAP) reporter gene that is linked to NF-κB activation in response to TLR stimulation. The SEAP activity was measured using the Quanti-Blue substrate (InvivoGen) after TLR agonist treatment.
The detailed experimental method is as follow:
HEK-BLUE-hTLR7 cell line was purchased from InvivoGen. The cells were cultured in Dulbecco's Modified Eagle's Media containing 4.5 g/L […] (Sigma-Aldrich) and 10% FBS. The cells were cultured at 37° C., 95% humidity and 5% CO2.
[…] A known TLR8 agonist was added as positive control and 1 μl of DMSO was added as negative control.
The cells were prepared as follows. The cells were removed from the incubator and growth medium was discarded. The cells were gently rinsed with pre-warmed 10 ml PBS for a T-150 flask. 12 ml pre-warmed growth medium was added, and the cells were detached by tapping the flask. Cell clumps were dissociated by gently pipetting up and down. The cells were counted. Single cell suspension was prepared at 200,000 cells per ml in growth medium and 200 μl of the cell suspension (40,000 cells per well) were immediately added to each well of the plate. The final DMSO concentration of each well was 0.5%.
The cells were cultured and treated with the compounds at 37° C., 5% CO2 for 24 hours.
20 μL of the supernatant of each well were added to 180 μL of QUANTI-Blue, and the plates were incubated at 37° C. for 1.5 hour. Optical density was measured using a spectrophotometer at 650 nm (OD data). Activivation was calculated by using the equation below: Activivation %=(Compound OD mean value−DMSO OD mean value)/(positive control OD mean value−DMSO OD mean value)×100
The data were analyzed using the GraphPad to get EC50 values and fitting dose response curves of the compounds.

[3] = 24 h treatment, SEAP/QUANTI-Blue readout

| EC50 [1, 3] | EC50 [2] | EC50 ([1]; bound stated) | Structure (SMILES) |
| --- | --- | --- | --- |
| < 0.1 µM | > 50 µM | – | CCCN(CCC)C(=O)C1=Cc2ccc(-c3ccc4c(=O)n(CCS(C)(=O)=O)ccc4c3)cc2N=C(N)C1 [Compound 1-2-23] |
| < 0.1 µM | > 50 µM | – | CCCN(CCC)C(=O)C1=Cc2ccc(-c3ccc4c(=O)n(Cc5ccn(C)n5)ccc4c3)cc2N=C(N)C1 [Compound 1-2-35] |
| < 0.1 µM | > 50 µM | – | CCCN(CCC)C(=O)C1=Cc2ccc(-c3ccc4c(=O)n(CCO)ncc4c3)cc2N=C(N)C1 [Compound 1-8-3] |
| < 0.1 µM | > 50 µM | < 0.01 µM | CCCN(CCC)C(=O)C1=Cc2ccc(-c3ccc4c(=O)n(Cc5nnnn5C)ccc4c3)cc2N=C(N)C1 [Compound 1-2-40] |
| < 0.1 µM | 10 to 50 µM | – | CCCN(CCC)C(=O)C1=Cc2ccc(-c3ccc4c(=O)n(CCS(=O)(=O)CC)ncc4c3)cc2N=C(N)C1 [Compound 1-8-12] |
| < 0.1 µM | > 50 µM | – | CCCN(CCC)C(=O)C1=Cc2ccc(-c3ccc4c(=O)n(CCO)c(=O)n(C)c4c3)cc2N=C(N)C1 [Compound 1-9-1] |
| < 0.1 µM | > 50 µM | – | CCCN(CCC)C(=O)C1=Cc2ccc(-c3ccc4c(=O)n(CC(=O)NC)c(=O)n(C)c4c3)cc2N=C(N)C1 [Compound 1-9-2] |
| < 0.1 µM | > 50 µM | – | CCCN(CCC)C(=O)C1=Cc2ccc(-c3ccc4c(=O)n(CCO)c(C)cc4c3)cc2N=C(N)C1 [Compound 1-2-8] |
| < 0.1 µM | 10 to 50 µM | – | CCCN(CCC)C(=O)C1=Cc2ccc(-c3ccc4c(=O)n(Cc5ncco5)ncc4c3)cc2N=C(N)C1 [Compound 1-8-15] |
| 0.1 to 1 µM | > 50 µM | – | CCCN(CCC)C(=O)C1=Cc2ccc(-c3ccc4c(=O)n(CCS(C)(=O)=O)c(=O)n(C)c4c3)cc2N=C(N)C1 [Compound 1-9-4] |
| < 0.1 µM | > 50 µM | – | CCCN(CCC)C(=O)C1=Cc2ccc(-c3ccc4c(=O)n(CCNS(C)(=O)=O)ccc4c3)cc2N=C(N)C1 [Compound 1-2-19] |
| < 0.1 µM | > 50 µM | – | CCCN(CCC)C(=O)C1=Cc2ccc(-c3ccc4c(c3)CN(CCO)C4=O)cc2N=C(N)C1 [Compound 1-3-2] |

| Structure (SMILES) | EC50 [1, 3] | EC50 [2] | EC50 ([1]; bound stated) |
| --- | --- | --- | --- |
| CCCN(CCC)C(=O)C1=Cc2ccc(-c3ccc4c(=O)n(CCOP(=O)(OC)OC)ccc4c3)cc2N=C(N)C1 [Compound 1-2-45] | < 0.1 µM | 10 to 50 µM | – |
